Results reported in patent US4560662A, “Streptomyces antibioticus ATCC 31771 and process for obtaining same” (priority 1981, dated 1985).
≈ marks a conversion by molar mass, not a printed value. Read-outs that look alike come from different tables or passages of the source.

Legend:
[1] = system: Corynebacterium diphteriae LRP 24; experiment: Bacteriostatic power in solid medium (MIC), aerobic Gram positive; type: cell-based; conditions: for MIC: Corynebacterium
[2] = system: Pseudomonas aeruginosa LRP 9; experiment: Bacteriostatic power in solid medium (MIC), aerobic Gram negative; type: cell-based; conditions: for MIC: Pseudomonas aeruginosa, LRP9, read-out: minimum inhibiting concentration
Text: (§1) Turning now to an examination of the novel macrolide antibiotics produced according to the present invention, they are all characterized by a bacteriostatic spectrum like that of erythromycin and by the stability in acidic environment, whereby their direct administration by oral route is possible, without having recourse to esters and/or salts, showing the afore mentioned disadvantages and problems. The above is confirmed by the following Table 1, wherein the MIC values are reported, indicating the bacteriostatic power, and by the Table 2, giving the stability values in acidic environment. Without having to be construed in a limiting sense, it seems plausible that the greater stability of the macrolide. antibiotics of the present invention can be attributed to the presence in the molecule of the antibiotic of the neutral sugar oleandrose (J. Antib. (1976) XXIX (7), 728).
(§2) Bacteriostatic power in solid medium of Erythromycin A, Erythromycin B,
(§3) aerobic and anaerobic bacteria, Gram positive and Gram negative minimum
(§4) inhibiting concentrations expressed in mcg/ml.

[3] = system: Haemophilus influenzae ATCC 19418; experiment: as above; type: cell-based; conditions: for MIC: Haemophilus influenzae, ATCC19418, LRP 213, read-out: minimum inhibiting concentration
Text: as §1, §2, §3, §4

Shigella sonnei LRP 5 = experiment: as above; type: cell-based; conditions: for MIC: Shigella sonnei, LRP5, read-out: minimum inhibiting concentration
Text: as §1, §2, §3, §4

[4] = system: Streptococcus pneumonieae LRP 53; experiment: Bacteriostatic power in solid medium (MIC), aerobic Gram positive; type: cell-based; conditions: for MIC: Streptococcus
Bacillus subtilis LRP 25 = experiment: as above; type: cell-based; conditions: for MIC: Bacillus subtilis
[5] = system: Acholeplasma laidlawii ATCC 23206; experiment: Bacteriostatic power in solid medium (MIC), aerobic Gram negative; type: cell-based; conditions: for MIC: Acholeplasma laidlawii
[6] = system: Streptococcus faecalis LRP 7; experiment: Bacteriostatic power in solid medium (MIC), aerobic Gram positive; type: cell-based; conditions: for MIC: Enterococcus faecalis
[7] = system: Streptococcus pneumonieae LRP 52; experiment: as above; type: cell-based; conditions: for MIC: Streptococcus
[8] = system: Streptococcus pyogenes LRP 197; experiment: as above; type: cell-based; conditions: for MIC: Streptococcus pyogenes
[9] = system: Proteus vulgaris ATCC 6380; experiment: Bacteriostatic power in solid medium (MIC), aerobic Gram negative; type: cell-based; conditions: for MIC: Proteus vulgaris
[10] = system: Staphylococcus aureus ATCC 14154; experiment: Bacteriostatic power in solid medium (MIC), aerobic Gram positive; type: cell-based; conditions: for MIC: Staphylococcus aureus, ATCC14154, LRP 78, Erythromicina resistant, read-out: minimum inhibiting concentration
Text: as §1, §2, §3, §4

[11] = system: Micrococcus luteus ATCC 15957; experiment: as above; type: cell-based; conditions: for MIC: Micrococcus luteus, ATCC15957, LRP 193, Erythromicina resistant, read-out: minimum inhibiting concentration
Text: as §1, §2, §3, §4

[12] = system: Mycoplasma hominis I ATCC 14097; experiment: Bacteriostatic power in solid medium (MIC), aerobic Gram negative; type: cell-based; conditions: for MIC: Metamycoplasma hominis
[13] = system: Streptococcus pneumonieae ATCC 6303; experiment: Bacteriostatic power in solid medium (MIC), aerobic Gram positive; type: cell-based; conditions: for MIC: Streptococcus
Salmonella typhi LRP 8 = experiment: Bacteriostatic power in solid medium (MIC), aerobic Gram negative; type: cell-based; conditions: for MIC: Salmonella enterica, TYPHI, read-out: minimum inhibiting concentration
[14] = system: Bacteroides fragilis ATCC 23745; experiment: Bacteriostatic power in solid medium (MIC), anaerobic; type: cell-based; conditions: for MIC: Bacteroides fragilis
physchem = type: physicochemical; conditions: for half-life: acidic environment
Text: t 1/2 represents the half life time of the antibiotics as determined by
high pressure liquid phase chromatography (HPLC).

[15] = system: Clostridium perfrigens ATCC 3624; experiment: Bacteriostatic power in solid medium (MIC), anaerobic; type: cell-based; conditions: for MIC: Clostridium, ATCC3624, LRP 206, read-out: minimum inhibiting concentration
[16] = system: Klebsiella pneumoniae LRP 54; experiment: Bacteriostatic power in solid medium (MIC), aerobic Gram negative; type: cell-based; conditions: for MIC: Klebsiella pneumoniae
[17] = system: Neisseria Gonorrhoeae ATCC 19424; experiment: as above; type: cell-based; conditions: for MIC: Neisseria gonorrhoeae
[18] = system: Micrococcus luteus ATCC 9341; experiment: Bacteriostatic power in solid medium (MIC), aerobic Gram positive; type: cell-based; conditions: for MIC: Micrococcus luteus
[19] = system: Staphylococcus aureus LRP 14; experiment: as above; type: cell-based; conditions: for MIC: Staphylococcus aureus
[20] = system: Fusobacterium necrophorum ATCC 27852; experiment: Bacteriostatic power in solid medium (MIC), anaerobic; type: cell-based; conditions: for MIC: Fusobacterium necrophorum, ATCC27852, read-out: minimum inhibiting concentration
[21] = system: Streptococcus pyogenes ATCC 8668; experiment: Bacteriostatic power in solid medium (MIC), aerobic Gram positive; type: cell-based; conditions: for MIC: Streptococcus pyogenes
[22] = system: Streptococcus faecalis sub. zymogenes ATCC 12958; experiment: as above; type: cell-based; conditions: for MIC: Enterococcus faecalis
Escherichia coli LRP 50 = experiment: Bacteriostatic power in solid medium (MIC), aerobic Gram negative; type: cell-based; conditions: solid medium, LRP 50; for MIC: Escherichia coli, LRP50, read-out: minimum inhibiting concentration
[23] = system: Staphylococcus aureus ATCC 6538 P; experiment: Bacteriostatic power in solid medium (MIC), aerobic Gram positive; type: cell-based; conditions: for MIC: Staphylococcus aureus

3-O-oleandrosyl-5-O-desosaminyl-(8S)-8,19-epoxyerythronolide B [P 15153]
minimum inhibiting concentration ([1]; solid medium, LRP 24): 0.024 µg/mL
minimum inhibiting concentration [2]: > 25 µg/mL
minimum inhibiting concentration ([3]; LRP 213): 12.5 µg/mL
minimum inhibiting concentration (Shigella sonnei LRP 5): > 25 µg/mL
minimum inhibiting concentration ([4]; solid medium, LRP 53): 0.024 µg/mL
minimum inhibiting concentration (Bacillus subtilis LRP 25; solid medium, LRP 25): 0.195 µg/mL
minimum inhibiting concentration ([5]; solid medium, LRP 204): 1.56 µg/mL
minimum inhibiting concentration ([6]; solid medium, LRP 7): 0.78 µg/mL
minimum inhibiting concentration ([7]; solid medium, LRP 52): 0.049 µg/mL
minimum inhibiting concentration ([8]; solid medium, LRP 197): 0.049 µg/mL
minimum inhibiting concentration ([9]; solid medium, LRP 13): > 25 µg/mL
minimum inhibiting concentration ([10]; LRP 78, Erythromicina resistant): > 25 µg/mL
minimum inhibiting concentration ([11]; LRP 193, Erythromicina resistant): > 25 µg/mL
minimum inhibiting concentration ([12]; solid medium, LRP 211): > 25 µg/mL
minimum inhibiting concentration ([13]; solid medium, LRP 35): 0.049 µg/mL
minimum inhibiting concentration (Salmonella typhi LRP 8; solid medium, LRP 8): 25 µg/mL
minimum inhibiting concentration ([14]; solid medium, LRP 205, anaerobic): 6.25 µg/mL
t 1/2 (physchem; pH 2.0, 25° C.): 65 h
minimum inhibiting concentration ([15]; LRP 206): 3.12 µg/mL
minimum inhibiting concentration ([16]; solid medium, LRP 54): > 25 µg/mL
minimum inhibiting concentration ([17]; solid medium, LRP 214): 0.195 µg/mL
minimum inhibiting concentration ([18]; solid medium, LRP 6): 0.024 µg/mL
minimum inhibiting concentration ([19]; solid medium, LRP 14, Penycilline resistant): 0.195 µg/mL
minimum inhibiting concentration ([20]; solid medium, LRP 210, anaerobic): 25 µg/mL
minimum inhibiting concentration ([21]; solid medium, LRP 34): 0.049 µg/mL
minimum inhibiting concentration ([22]; solid medium, LRP 61): 0.39 µg/mL
minimum inhibiting concentration (Escherichia coli LRP 50): 25 µg/mL
minimum inhibiting concentration ([23]; solid medium, LRP 39): 0.195 µg/mL

CC[C@H]1OC(=O)[C@H](C)[C@@H](O[C@H]2C[C@@](C)(OC)[C@@H](O)[C@H](C)O2)[C@H](C)[C@@H](O[C@@H]2O[C@H](C)C[C@H](N(C)C)[C@H]2O)[C@](C)(O)C[C@@H](C)C(=O)[C@H](C)[C@@H](O)[C@]1(C)O [Erythromycin A, reference compound]
MIC ([1]; LRP24, read-out: minimum inhibiting concentration): 0.006 µg/mL (≈ 0.00818 µM)
MIC [2]: > 25 µg/mL
MIC [3]: 3.12 µg/mL (≈ 4.25 µM)
MIC (Shigella sonnei LRP 5): 12.5 µg/mL (≈ 17 µM)
MIC ([4]; LRP53, read-out: minimum inhibiting concentration): 0.012 µg/mL (≈ 0.0164 µM)
MIC (Bacillus subtilis LRP 25; LRP25, read-out: minimum inhibiting concentration): 0.049 µg/mL (≈ 0.0668 µM)
MIC ([5]; ATCC23206, read-out: minimum inhibiting concentration): 0.097 µg/mL (≈ 0.132 µM)
MIC ([6]; LRP7, read-out: minimum inhibiting concentration): 0.097 µg/mL (≈ 0.132 µM)
MIC ([7]; LRP52, read-out: minimum inhibiting concentration): 0.012 µg/mL (≈ 0.0164 µM)
MIC ([8]; LRP197, read-out: minimum inhibiting concentration): 0.012 µg/mL (≈ 0.0164 µM)
MIC ([9]; ATCC6380, read-out: minimum inhibiting concentration): > 25 µg/mL
MIC [10]: > 25 µg/mL
MIC [11]: > 25 µg/mL
MIC ([12]; ATCC14097, read-out: minimum inhibiting concentration): > 25 µg/mL
MIC ([13]; ATCC6303, read-out: minimum inhibiting concentration): 0.012 µg/mL (≈ 0.0164 µM)
MIC (Salmonella typhi LRP 8): 12.5 µg/mL (≈ 17 µM)
MIC ([14]; ATCC23745, read-out: minimum inhibiting concentration): 0.195 µg/mL (≈ 0.266 µM)
half-life (physchem; pH 2): 2 min
half-life (physchem; pH 3): 6 min
MIC [15]: 1.56 µg/mL (≈ 2.13 µM)
MIC ([16]; LRP54, read-out: minimum inhibiting concentration): 25 µg/mL (≈ 34.1 µM)
MIC ([17]; ATCC19424, read-out: minimum inhibiting concentration): 0.049 µg/mL (≈ 0.0668 µM)
MIC ([18]; ATCC9341, read-out: minimum inhibiting concentration): 0.006 µg/mL (≈ 0.00818 µM)
MIC ([19]; LRP14, read-out: minimum inhibiting concentration): 0.049 µg/mL (≈ 0.0668 µM)
MIC [20]: 1.56 µg/mL (≈ 2.13 µM)
MIC ([21]; ATCC8668, read-out: minimum inhibiting concentration): 0.012 µg/mL (≈ 0.0164 µM)
MIC ([22]; ATCC12958, read-out: minimum inhibiting concentration): 0.195 µg/mL (≈ 0.266 µM)
MIC (Escherichia coli LRP 50): 6.25 µg/mL (≈ 8.52 µM)
MIC ([23]; ATCC6538, read-out: minimum inhibiting concentration): 0.049 µg/mL (≈ 0.0668 µM)

CC[C@H]1OC(=O)[C@H](C)[C@@H](O[C@H]2C[C@@](C)(OC)[C@@H](O)[C@H](C)O2)[C@H](C)[C@@H](O[C@@H]2O[C@H](C)C[C@H](N(C)C)[C@H]2O)[C@](C)(O)C[C@@H](C)C(=O)[C@H](C)[C@@H](O)[C@H]1C [Erythromycin B, reference compound]
MIC ([1]; LRP24, solid medium, LRP 24, read-out: minimum inhibiting concentration): 0.012 µg/mL (≈ 0.0167 µM)
MIC [2]: > 25 µg/mL
MIC [3]: 6.25 µg/mL (≈ 8.71 µM)
MIC (Shigella sonnei LRP 5): > 25 µg/mL
MIC ([4]; LRP53, solid medium, LRP 53, read-out: minimum inhibiting concentration): 0.024 µg/mL (≈ 0.0334 µM)
MIC (Bacillus subtilis LRP 25; LRP25, solid medium, LRP 25, read-out: minimum inhibiting concentration): 0.049 µg/mL (≈ 0.0683 µM)
MIC ([5]; ATCC23206, solid medium, LRP 204, read-out: minimum inhibiting concentration): 0.097 µg/mL (≈ 0.135 µM)
MIC ([6]; LRP7, solid medium, LRP 7, read-out: minimum inhibiting concentration): 0.195 µg/mL (≈ 0.272 µM)
MIC ([7]; LRP52, solid medium, LRP 52, read-out: minimum inhibiting concentration): 0.024 µg/mL (≈ 0.0334 µM)
MIC ([8]; LRP197, solid medium, LRP 197, read-out: minimum inhibiting concentration): 0.024 µg/mL (≈ 0.0334 µM)
MIC ([9]; ATCC6380, solid medium, LRP 13, read-out: minimum inhibiting concentration): > 25 µg/mL
MIC [10]: > 25 µg/mL
MIC [11]: > 25 µg/mL
MIC ([12]; ATCC14097, solid medium, LRP 211, read-out: minimum inhibiting concentration): > 25 µg/mL
MIC ([13]; ATCC6303, solid medium, LRP 35, read-out: minimum inhibiting concentration): 0.024 µg/mL (≈ 0.0334 µM)
MIC (Salmonella typhi LRP 8): 25 µg/mL (≈ 34.8 µM)
MIC ([14]; ATCC23745, solid medium, LRP 205, anaerobic, read-out: minimum inhibiting concentration): 0.195 µg/mL (≈ 0.272 µM)
MIC [15]: 1.56 µg/mL (≈ 2.17 µM)
MIC ([16]; LRP54, solid medium, LRP 54, read-out: minimum inhibiting concentration): 25 µg/mL (≈ 34.8 µM)
MIC ([17]; ATCC19424, solid medium, LRP 214, read-out: minimum inhibiting concentration): 0.097 µg/mL (≈ 0.135 µM)
MIC ([18]; ATCC9341, solid medium, LRP 6, read-out: minimum inhibiting concentration): 0.006 µg/mL (≈ 0.00836 µM)
MIC ([19]; LRP14, solid medium, LRP 14, Penycilline resistant, read-out: minimum inhibiting concentration): 0.195 µg/mL (≈ 0.272 µM)
MIC [20]: 6.25 µg/mL (≈ 8.71 µM)
MIC ([21]; ATCC8668, solid medium, LRP 34, read-out: minimum inhibiting concentration): 0.024 µg/mL (≈ 0.0334 µM)
MIC ([22]; ATCC12958, solid medium, LRP 61, read-out: minimum inhibiting concentration): 0.195 µg/mL (≈ 0.272 µM)
MIC (Escherichia coli LRP 50): 25 µg/mL (≈ 34.8 µM)
MIC ([23]; ATCC6538, solid medium, LRP 39, read-out: minimum inhibiting concentration): 0.097 µg/mL (≈ 0.135 µM)
